Results on 16 compounds are retold here after paper PMC12299477 (Viruses, 2025).

What is called EC50 is the concentration giving half of the maximal effect. The term CC50 denotes the concentration giving 50% cytotoxicity.

In one data set the test system is RSV-A2. In words: Virus inhibition assay (plaque reduction), RSV-A2 on Hep-2 cells. It counts as cell-based. The conditions noted are these: human respiratory syncytial virus, HEp-2, 72 h, read-out: Residual Virus Infectivity (%) RSV-A2.
The test system of another data set is Hep-2 cells. In words: Cytotoxic effect microscopically visible in the RSV-A2 screening. The arrangement: key: -: Cytotoxic effect microscopically visible. In kind it is cell-based, human.
The subject of the next data set is MRC-5 cells. In words: Cytotoxic effect microscopically visible in the HCoV-OC43 screening. The conditions noted are these: 33 µM. The arrangement: key: -: Cytotoxic effect microscopically visible. It counts as cell-based, human.
The next data set deals with HCoV-OC43. Briefly: Virus inhibition assay (focus reduction), HCoV-OC43 on MRC-5 cells. It counts as cell-based, human coronavirus. The settings on record: Betacoronavirus 1, OC43, MRC5, read-out: EC50 (µM) (95% CI).
A short description of data set [1]: Cell viability MTS assay on MRC-5 cells. In kind it is cell-based. The settings on record: human, same conditions as HCoV inhibition assay, read-out: CC50 (µM) (95% CI).

For `O=C(NCc1ccccc1)c1cc(-c2ccccc2)c(=O)n2c1sc1ccc(OC3CCCCC3)cc12` [Compound 3], in the data set on RSV-A2, the activity at 0.3 µM was 100%, the activity at 3 µM stood at 93% and the activity at 33 µM was 67%.

With `O=C(NCC1(C(=O)O)CC1)c1cc(-c2ccccc2)c(=O)n2c1sc1ccc(OC3CCCCC3)cc12` [Compound 4], the “Cytotoxic effect microscopically visible” value in the data set on Hep-2 cells (33 µM) and in the data set on MRC-5 cells was “-” throughout.

With `O=C(N[C@@H](Cc1ccc(O)cc1)C(=O)O)c1cc(-c2ccccc2)c(=O)n2c1sc1cc(OC3CCCCC3)ccc12` [Compound 5], the “Cytotoxic effect microscopically visible” value with Hep-2 cells (33 µM) and in the data set on MRC-5 cells was “-” in each case.

For the compound `O=C(O)CC(NC(=O)c1cc(-c2ccccc2)c(=O)n2c1sc1ccc(OC3CCCCC3)cc12)c1ccccc1` (centres unmarked) [Compound 6], the “Cytotoxic effect microscopically visible” value in the data set on Hep-2 cells (3 µM), in the data set on Hep-2 cells (33 µM) and with MRC-5 cells was “-” each time.

Regarding `O=C(N[C@@H](CO)C(=O)O)c1cc(-c2ccccc2)c(=O)n2c1sc1ccc(OC3CCCCC3)cc12` [Compound 8], in the data set with RSV-A2, the activity at 0.3 µM stood at 100%, the activity at 3 µM came out at 100% and the activity at 33 µM turned out to be 98%.

`O=C(N[C@@H](Cc1ccc(O)cc1)C(=O)O)c1cc(-c2ccc(Cl)cc2)c(=O)n2c1sc1ccc(OC3CCCCC3)cc12` [Compound 9]: the EC50 in the data set with HCoV-OC43 was 1.2 µM. Moreover, the cytotoxic concentration (CC50) in data set [1] was found to be 55.6 µM. The “Cytotoxic effect microscopically visible” value in the data set with Hep-2 cells (33 µM) is on record as “-”.

As to `O=C(O)CCNC(=O)c1cc(-c2ccccc2)c(=O)n2c1sc1ccc(OC3CCCCC3)cc12` [Compound 10], the EC50 with HCoV-OC43 came out at 7.97 µM. Besides, the CC50 in data set [1] is over 200 µM. In addition, the “Cytotoxic effect microscopically visible” value in the data set with Hep-2 cells (33 µM) was “-”.

With `NC(=O)CCNC(=O)c1cc(-c2ccccc2)c(=O)n2c1sc1ccc(OC3CCCCC3)cc12` [Compound 12], in the data set on Hep-2 cells (33 µM), the “Cytotoxic effect microscopically visible” value is given as “-”.

As to `O=C(N[C@@H](Cc1ccc(O)cc1)C(=O)O)c1cc(-c2ccc(F)cc2)c(=O)n2c1sc1ccc(OC3CCCCC3)cc12` [Compound 14], the 50% effective concentration (EC50) in the data set with HCoV-OC43 worked out at 1.09 µM. Also, the CC50 in data set [1] is 62.2 µM. The “Cytotoxic effect microscopically visible” value in the data set on Hep-2 cells (33 µM) was “-”.

With `O=C(N[C@@H](Cc1ccc(O)cc1)C(=O)O)c1cc(-c2ccccc2F)c(=O)n2c1sc1ccc(OC3CCCCC3)cc12` [Compound 15], in the data set on RSV-A2, the activity at 0.3 µM came to 86%, the activity at 3 µM was found to be 85% and the activity at 33 µM came out at 40%.

Take `O=C(N[C@@H](Cc1ccc(O)cc1)C(=O)O)c1cc(-c2ccccc2)c(=O)n2c1sc1ccc(OC3CCCC3)cc12` [Compound 17]: the “Cytotoxic effect microscopically visible” value in the data set on Hep-2 cells (33 µM) was “-”.

With `O=C(O)C1CCN(C(=O)c2cc(-c3ccccc3)c(=O)n3c2sc2ccc(OC4CCCCC4)cc23)C1` (centres unmarked) [Compound 20], in the data set on RSV-A2, the activity at 0.3 µM amounted to 100%, the activity at 3 µM stood at 100% and the activity at 33 µM was 100%.

In the case of `NS(=O)(=O)c1ccc(OC(=O)c2cc(-c3ccccc3)c(=O)n3c2sc2ccc(OC4CCCCC4)cc23)cc1` [Compound 23], the EC50 in the data set with HCoV-OC43 amounted to 0.23 µM. Also, the CC50 in data set [1] amounted to 18.2 µM. Further, the “Cytotoxic effect microscopically visible” value in the data set with Hep-2 cells (33 µM) was “-”.

As for `O=C(N[C@@H](Cc1ccccc1)C(=O)O)c1cc(-c2ccccc2)c(=O)n2c1sc1ccc(OC3CCCCC3)cc12` [Compound 26], the “Cytotoxic effect microscopically visible” value in the data set on Hep-2 cells (33 µM) and in the data set with MRC-5 cells was “-” in each case.

For `O=C(N[C@@H](Cc1ccc(O)cc1)C(=O)O)c1ccc(=O)n2c1sc1ccc(OC3CCCCC3)cc12` [Compound 27], the EC50 in the data set with HCoV-OC43 was found to be 10 µM. The CC50 in data set [1] was 189 µM.

In the case of `CCN(CC)CCCC(C)Nc1ccnc2cc(Cl)ccc12` (centres unmarked) [chloroquine, reference compound], the concentration giving a half-maximal response (EC50) in the data set on HCoV-OC43 was determined as 0.19 µM.
